# Measured values taken from patent publication US10899910B2, “Quaternary cationic polymers” (ECOLAB USA, INC., priority 2016, dated 2021).
# Legend:
# [1] = system: bacterial spores or thermophiles; experiment: Anti-spore and anti-thermophile activity; format: cell-based; conditions: about 20 ppm; for Log Reduction: vs control
# Method: The effect of the compounds on bacterial spores or thermophiles was also tested. Compounds 1 and 4 were incubated separately with spores or thermophiles at a concentration of about 20 ppm, and the reduction in concentration was measured at four time points (See Table 3).
# [2] = system: mixture of aerobic populations from more than 30 cooling systems in North America; experiment: Non-oxidative antimicrobial efficiency test in cooling water (ASTM E645-02a); format: cell-based, bacteria (specific species not identified); conditions: at the tested concentrations
# Method: Antimicrobial efficiency of the synthesized compounds was tested using a non-oxidative antimicrobial efficiency test procedure according to ASTM method for microbiocide efficiency in cooling water (E645-02a, 2005). The bacteria used in the efficacy testing comprised a mixture of aerobic populations from more than 30 cooling systems in North America. The specific species were not identified. Those species were grown on R2A agar.
# In one experiment, various concentrations (0 ppm, 5 ppm, 10 ppm, 20 ppm, 30 ppm, 40 ppm, and 50 ppm) of Compound 1 were applied to bacteria in water. The log 10 concentration in colony forming units (CFU/ml) was measured at four time points (0 min, 60 min, 240 min, and 1440 min).
# The microbial activity of Compounds 1-4 at a concentration of 50 ppm was tested according to the same procedure described above.
# The antimicrobial activity of Compound 4 was tested using the same procedures as described above.
# [3] = Surface tension measurement (Tracker tensiometer); format: physicochemical; conditions: room temperature
# Method: Surface tension measurements were conducted on a Tracker tensiometer (Teclis Instruments) at room temperature. Various concentrations of surfactant solutions were prepared and measurements were conducted.
# The surface tension as a function of concentration of the cationic surfactant samples were measured and are listed in Table 2, where NT means not tested.
# [4] = Corrosion bubble cell test (Linear Polarization Resistance); conditions: 2 ppm with 1% 2ME synergist; CO2-saturated brine/hydrocarbon, 80° C.; three hours baseline (Tables 8, 9)
# Method: (§1) Cationic polymer salts were evaluated for corrosion performance as compared to a C12-C18 alkyl dimethyl benzyl ammonium chloride via a bubble test procedure. The bubble test simulates low flow areas where little or no mixing of water and oil occurs. The test was conducted using brine (80% of the brine being 3% sodium chloride brine and 20% of the brine being a hydrocarbon containing 75% LVT-200 kerosene oil and 25% xylene). The brine was placed into kettles and purged with carbon dioxide. The brine was continually purged with carbon dioxide to saturate the brine prior to starting the test. After the test began, the test cell was blanketed with carbon dioxide one hour prior to electrode insertion and through the duration of the test to maintain saturation. The kettles were stirred at 150 revolutions per minute (rpm) for the duration of the test to maintain thermal equilibrium at 80° C. The corrosion rate was measured by Linear Polarization Resistance (LPR) techniques. The working electrode used was carbon steel. The counter and reference electrodes were both 1018 carbon steel. The electrodes were all cleaned and polished prior to testing. Data were collected for three hours before 20 ppm of each of the compositions (containing 2 ppm of each of various pentaquaternary cationic polymer salts or the comparative C12-C18 alkyl dimethyl benzyl ammonium chloride and 1% 2-mercaptoethanol (2ME) as synergist in an organic solvent) was dosed into its respective cell. Data were collected overnight. A low concentration of the compositions was used to differentiate between the compositions.
# Corrosion bubble cell tests were performed according to the method of Example A1 to evaluate a hexaquaternary cationic polymer salt for corrosion performance as compared to a C12-C18 alkyl dimethyl benzyl ammonium chloride. Data were collected for three hours before 20 ppm of each of the compositions (containing 2 ppm of a hexaquaternary cationic polymer salt or the comparative C12-C18 alkyl dimethyl benzyl ammonium chloride and 1% 2ME as synergist in an organic solvent) was dosed into its respective cell. Data were collected overnight. A low concentration of the compositions was used to differentiate between the compositions.
# as §1, with “six” for “three”, “polyethyleneimine-based” for “pentaquaternary”, “cell. However, for the comparative composition, data was only collected three hours before addition of the compositions.” for “cell.”
# [5] = system: collection of aerobic bacteria from 30 water samples in cooling towers across North America; experiment: Biofilm reduction (biofilm inhibition test, stain absorbance at 590 nm); format: cell-based; conditions: for (Comp. - Single Quat 2)*100 / Single Quat 2: biofilm reduction relative to Single Quat 2
# Method: Biofilm reduction experiments were conducted to test the efficacy of multi-quaternary cationic polymers compared to single quaternary compounds. Two different compositions were prepared containing single quaternary compounds: a composition (Single Quat 1) comprising about 50% by weight bisoctyl dimethyl ammonium chloride (CAS #5538-94-3) and about 5-10% by weight glycerin; and a composition (Single Quat 2) comprising about 50% by weight didecyl-dimethyl ammonium chloride (CAS #7173-51-5) and about 10-30% by weight ethanol. The test bacteria comprised a collection of aerobic bacteria from 30 water samples in cooling towers across North America. Different concentrations of cationic polymer salts and single quaternary compounds were tested ranging from about 0.8 ppm to about 1000 ppm. Using the biofilm inhibition test protocols, the absorbed stains were extracted and absorbance was measured at 590 nm. The biofilm reduction was calculated by comparing the absorbance of treated vs untreated controls, then averaged over six replicates.
compound,measurement,setting,value
CCCCCCCCCCCCCCCCCC[N+](C)(C)CC(O)CN(CCN(CC(O)C[N+](C)(C)C)CC(O)C[N+](C)(C)CCCCCCCCCCCCCCCCCC)CCN(CC(O)C[N+](C)(C)C)CC(O)C[N+](C)(C)CCCCCCCCCCCCCCCCCC.[Cl-].[Cl-].[Cl-].[Cl-].[Cl-] (stereo not drawn) [Compound 4],Log cfu/ml,[1]; contact time 0 min,2.53 Log cfu/ml
same,Log Reduction,[1]; contact time 0 min,−0.04
same,Log cfu/ml,[1]; contact time 60 min,1.6 Log cfu/ml
same,Log Reduction,[1]; contact time 60 min,0.74
same,Log cfu/ml,[1]; contact time 240 min,0.00 Log cfu/ml
same,Log Reduction,[1]; contact time 240 min,2.48
same,Log cfu/ml,[1]; contact time 1440 min,1.78 Log cfu/ml
same,Log Reduction,[1]; contact time 1440 min,0.75
same,antimicrobial activity,[2],significant antimicrobial activity
CCCCCCCCCCCCCCCCCC[N+](C)(C)CC(O)CN(CCN(CCN(CC(O)C[N+](C)(C)C)CC(O)C[N+](C)(C)C)CC(O)C[N+](C)(C)C)CC(O)C[N+](C)(C)C.[Cl-].[Cl-].[Cl-].[Cl-].[Cl-] (stereo not drawn) [Compound 7],Surface tension,[3]; concentration 0.010 %,73.70 mN/m
same,Surface tension,[3]; concentration 0.025 %,72.05 mN/m
same,Surface tension,[3]; concentration 0.050 %,64.84 mN/m
same,Surface tension,[3]; concentration 0.100 %,60.93 mN/m
same,Surface tension,[3]; concentration 0.200 %,57.12 mN/m
same,Surface tension,[3]; concentration 0.500 %,55.13 mN/m
same,% Protection,[4],64%
same,Biofilm reduction,[5]; active conc. 0.8 ppm,22.9%
same,(Comp. - Single Quat 2)*100 / Single Quat 2,[5]; active conc. 0.8 ppm,106.8%
same,Biofilm reduction,[5]; active conc. 1.6 ppm,12.7%
same,(Comp. - Single Quat 2)*100 / Single Quat 2,[5]; active conc. 1.6 ppm,321.3%
same,Biofilm reduction,[5]; active conc. 3.0 ppm,46.7%
same,(Comp. - Single Quat 2)*100 / Single Quat 2,[5]; active conc. 3.0 ppm,35.5%
same,Biofilm reduction,[5]; active conc. 6.0 ppm,23.5%
same,(Comp. - Single Quat 2)*100 / Single Quat 2,[5]; active conc. 6.0 ppm,195.0%
same,Biofilm reduction,[5]; active conc. 8.0 ppm,54.9%
same,(Comp. - Single Quat 2)*100 / Single Quat 2,[5]; active conc. 8.0 ppm,−20.8%
same,Biofilm reduction,[5]; active conc. 12.0 ppm,65.1%
same,(Comp. - Single Quat 2)*100 / Single Quat 2,[5]; active conc. 12.0 ppm,24.2%
same,Biofilm reduction,[5]; active conc. 16.0 ppm,90.6%
same,(Comp. - Single Quat 2)*100 / Single Quat 2,[5]; active conc. 16.0 ppm,10.9%
same,Biofilm reduction,[5]; active conc. 25.0 ppm,90.6%
same,(Comp. - Single Quat 2)*100 / Single Quat 2,[5]; active conc. 25.0 ppm,12.9%
same,Biofilm reduction,[5]; active conc. 31.0 ppm,94.7%
same,(Comp. - Single Quat 2)*100 / Single Quat 2,[5]; active conc. 31.0 ppm,16.0%
same,Biofilm reduction,[5]; active conc. 50.0 ppm,93.0%
same,(Comp. - Single Quat 2)*100 / Single Quat 2,[5]; active conc. 50.0 ppm,15.7%
same,Biofilm reduction,[5]; active conc. 62.0 ppm,96.6%
same,(Comp. - Single Quat 2)*100 / Single Quat 2,[5]; active conc. 62.0 ppm,47.6%
same,Biofilm reduction,[5]; active conc. 100.0 ppm,79.3%
same,(Comp. - Single Quat 2)*100 / Single Quat 2,[5]; active conc. 100.0 ppm,608.5%
same,Biofilm reduction,[5]; active conc. 125.0 ppm,96.6%
same,(Comp. - Single Quat 2)*100 / Single Quat 2,[5]; active conc. 125.0 ppm,1517.3%
same,Biofilm reduction,[5]; active conc. 250.0 ppm,97.1%
same,(Comp. - Single Quat 2)*100 / Single Quat 2,[5]; active conc. 250.0 ppm,15.3%
same,Biofilm reduction,[5]; active conc. 500.0 ppm,97.8%
same,(Comp. - Single Quat 2)*100 / Single Quat 2,[5]; active conc. 500.0 ppm,6.3%
same,Biofilm reduction,[5]; active conc. 1000.0 ppm,98.4%
same,(Comp. - Single Quat 2)*100 / Single Quat 2,[5]; active conc. 1000.0 ppm,63.7%
same,biofilm reduction compared with the Single Quat 2 composition,[5]; at concentrations as low as about 12 ppm,reduced biofilms to a greater extent than the Single Quat 2 composition
CCCCCCCCCCCCCCCCCC[N+](C)(C)CC(O)CN(CCN(CCN(CC(O)C[N+](C)(C)C)CC(O)C[N+](C)(C)CCCCCCCCCCCCCCCCCC)CC(O)C[N+](C)(C)C)CC(O)C[N+](C)(C)C.[Cl-].[Cl-].[Cl-].[Cl-].[Cl-] (stereo not drawn) [Compound 9],Surface tension,[3]; concentration 0.010 %,73.11 mN/m
same,Surface tension,[3]; concentration 0.025 %,69.16 mN/m
same,Surface tension,[3]; concentration 0.050 %,60.77 mN/m
same,Surface tension,[3]; concentration 0.100 %,54.69 mN/m
same,Surface tension,[3]; concentration 0.200 %,52.05 mN/m
same,Surface tension,[3]; concentration 0.500 %,50.09 mN/m
same,Surface tension,[3]; concentration 1.000 %,49.38 mN/m
same,% Protection,[4],60%
same,Biofilm reduction,[5]; active conc. 0.8 ppm,20.5%
same,(Comp. - Single Quat 2)*100 / Single Quat 2,[5]; active conc. 0.8 ppm,314.7%
same,Biofilm reduction,[5]; active conc. 1.6 ppm,35.9%
same,(Comp. - Single Quat 2)*100 / Single Quat 2,[5]; active conc. 1.6 ppm,−9.6%
same,Biofilm reduction,[5]; active conc. 3.0 ppm,41.2%
same,(Comp. - Single Quat 2)*100 / Single Quat 2,[5]; active conc. 3.0 ppm,−43.2%
same,Biofilm reduction,[5]; active conc. 6.0 ppm,45.4%
same,(Comp. - Single Quat 2)*100 / Single Quat 2,[5]; active conc. 6.0 ppm,−11.1%
same,Biofilm reduction,[5]; active conc. 8.0 ppm,62.6%
same,(Comp. - Single Quat 2)*100 / Single Quat 2,[5]; active conc. 8.0 ppm,−8.6%
same,Biofilm reduction,[5]; active conc. 12.0 ppm,70.9%
same,(Comp. - Single Quat 2)*100 / Single Quat 2,[5]; active conc. 12.0 ppm,−13.2%
same,Biofilm reduction,[5]; active conc. 16.0 ppm,79.0%
same,(Comp. - Single Quat 2)*100 / Single Quat 2,[5]; active conc. 16.0 ppm,−15.5%
same,Biofilm reduction,[5]; active conc. 25.0 ppm,76.8%
same,(Comp. - Single Quat 2)*100 / Single Quat 2,[5]; active conc. 25.0 ppm,−15.9%
same,Biofilm reduction,[5]; active conc. 31.0 ppm,46.9%
same,(Comp. - Single Quat 2)*100 / Single Quat 2,[5]; active conc. 31.0 ppm,−50.8%
same,Biofilm reduction,[5]; active conc. 50.0 ppm,77.6%
same,(Comp. - Single Quat 2)*100 / Single Quat 2,[5]; active conc. 50.0 ppm,−15.9%
same,Biofilm reduction,[5]; active conc. 62.0 ppm,90.7%
same,(Comp. - Single Quat 2)*100 / Single Quat 2,[5]; active conc. 62.0 ppm,−0.4%
same,Biofilm reduction,[5]; active conc. 100.0 ppm,97.3%
same,(Comp. - Single Quat 2)*100 / Single Quat 2,[5]; active conc. 100.0 ppm,41.9%
same,Biofilm reduction,[5]; active conc. 125.0 ppm,98.9%
same,(Comp. - Single Quat 2)*100 / Single Quat 2,[5]; active conc. 125.0 ppm,88.6%
same,Biofilm reduction,[5]; active conc. 250.0 ppm,99.5%
same,(Comp. - Single Quat 2)*100 / Single Quat 2,[5]; active conc. 250.0 ppm,55.3%
same,Biofilm reduction,[5]; active conc. 500.0 ppm,99.6%
same,(Comp. - Single Quat 2)*100 / Single Quat 2,[5]; active conc. 500.0 ppm,23.7%
same,Biofilm reduction,[5]; active conc. 1000.0 ppm,99.6%
same,(Comp. - Single Quat 2)*100 / Single Quat 2,[5]; active conc. 1000.0 ppm,33.5%
same,reduction in biofilm formation,[5]; at concentrations about 100 ppm,greater than 95%
